Ends that are not written are not given here. amino resin = not defined here; spacer = not defined here
Key:
[1] = target: alpha-1-proteinase inhibitor (API) (Homo sapiens, UniProt P01009); assay type: binding
PPV [2] = assay type: binding, porcine parvovirus
SV40 = assay type: binding, simian virus 40
Polio Virus = assay type: binding, poliovirus
HAV [3] = assay type: binding, hepatitis A virus
PRV [4] = assay type: binding, pseudorabies virus; settings: peptide resin
HIV = assay type: binding, human immunodeficiency virus
BVDV = assay type: binding, bovine viral diarrhea virus
PPV [5] = assay type: binding, porcine parvovirus; remark: listed apart in the source
HAV [6] = assay type: binding, hepatitis A virus; remark: listed apart in the source
PRV [7] = assay type: binding, pseudorabies virus

Sequence of alpha-1-proteinase inhibitor (API) (P01009 25-418): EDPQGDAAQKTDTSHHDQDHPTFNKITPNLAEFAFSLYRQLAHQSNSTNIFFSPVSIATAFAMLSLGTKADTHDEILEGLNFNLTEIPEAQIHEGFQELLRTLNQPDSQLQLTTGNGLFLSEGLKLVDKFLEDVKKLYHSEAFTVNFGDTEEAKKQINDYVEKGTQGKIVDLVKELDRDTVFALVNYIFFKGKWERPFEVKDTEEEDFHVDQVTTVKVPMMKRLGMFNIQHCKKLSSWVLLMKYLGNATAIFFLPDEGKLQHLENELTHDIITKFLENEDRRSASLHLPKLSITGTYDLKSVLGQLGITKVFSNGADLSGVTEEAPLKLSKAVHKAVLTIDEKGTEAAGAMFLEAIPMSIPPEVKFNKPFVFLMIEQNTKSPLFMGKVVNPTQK

APPRTV: Table 2 sample 5
binding to API [1]: API-binding

AQTFHD: Table 2 sample 1
binding to API [1]: API-binding

Acetyl-FLLPYK: N-acetylated FLLPYK on resin (Ac-FLLPYK)
logs reduction (clearance) of PPV in column flow-through (PPV [2]): no clearance

FLLFQP: Table 1 sample 5
Screen (positive bead, ligand identified for virus) (SV40): SV40

FLLIDA: Table 1 sample 8
Screen (positive bead, ligand identified for virus) (Polio Virus): Polio

FLLPYK: consensus peptide synthesized onto amino resin with a spacer at the carboxy terminal (FLLPYK-{spacer-amino resin}; not fully specified; reading uncertain)
logs reduction (clearance) of PPV in column flow-through (PPV [2]): five | binds HAV (HAV [3]): binds | binds PRV (PRV [4]): binds | binds HIV (HIV): binds | binds BVDV (BVDV): binds

FLLYAK: also Table 4 sample 46
binds PPV (sequences that bind to all three viruses) (PPV [5]): bind | binds HAV (sequences that bind to all three viruses) (HAV [6]): bind | binds PRV (sequences that bind to all three viruses) (PRV [7]): bind

LKRIEY: Table 2 sample 3
binding to API [1]: API-binding

NFZQNT: Table 2 sample 7
binding to API [1]: API-binding

RDYDTD: Table 2 sample 2
binding to API [1]: API-binding

SDLRRL: Table 2 sample 4
binding to API [1]: API-binding

SKNNAA: Table 2 sample 8
binding to API [1]: API-binding

VLYTNN: Table 2 sample 6
binding to API [1]: API-binding

amino-FLLP: truncated peptide on resin (on resin)
logs reduction (clearance) of PPV in column flow-through (PPV [2]): no significant clearance
